Reference: publication PMC3893156 (Molecular Genetics & Genomic Medicine, 2013)
Numbering of substitutions follows the chain as printed. One block for each compound: values may come before it.

Tests used:
[1] = target: T1, Phosphomannomutase 2 (wt-PMM2) (Homo sapiens, UniProt O15305); assay: activation of purified enzyme; assay type: biochemical
T1 sequence (O15305 1-246): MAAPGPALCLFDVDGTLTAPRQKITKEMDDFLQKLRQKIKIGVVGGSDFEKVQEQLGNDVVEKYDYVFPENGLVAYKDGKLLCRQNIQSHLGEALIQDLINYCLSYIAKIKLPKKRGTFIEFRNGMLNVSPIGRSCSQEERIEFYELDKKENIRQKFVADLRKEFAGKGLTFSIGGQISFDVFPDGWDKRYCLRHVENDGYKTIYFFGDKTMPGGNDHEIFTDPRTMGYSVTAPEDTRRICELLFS

[2] = target: T2, Phosphomannomutase 2 (F119L-PMM2) (Homo sapiens, UniProt O15305, F119L); assay: activation of purified enzyme; assay type: biochemical
T2 sequence (O15305 1-246 F119L): T1 sequence (O15305 1-246) with F119L

[3] = target: T1, Phosphomannomutase 2 (wt-PMM2); assay: thermal shift, size exclusion chromatography; assay type: binding
[4] = target: T1, Phosphomannomutase 2 (wt-PMM2); assay: thermal shift assay; assay type: binding

EC50 [1]: 10 µM
EC50 [2]: 36 µM
SMILES: O=P(O)(O)OC[C@H]1O[C@H](OP(=O)(O)O)[C@H](O)[C@@H](O)[C@@H]1O [Glc-1,6-P2, glucose-1,6-bisphosphate]

SMILES: O=P(O)(O)OC[C@H]1OC(O)[C@H](O)[C@@H](O)[C@@H]1O (stereo partly drawn) [Glc-6-P, D-glucose 6-phosphate]
thermal shift, size exclusion chromatography (dimer stabilization) [3]: Glc-1-P and Glc-6-P produce a small, but statistically significant increase of the midpoint temperature

SMILES: O=P(O)(O)OC[C@H]1O[C@H](OP(=O)(O)O)[C@@H](O)[C@@H](O)[C@@H]1O [Man-1,6-P2, mannose 1,6-bisphosphate]
thermal shift assay [4]: Glc-1,6-P2 is slightly more effective than Man-1,6-P2 (Table S1)
